According to PMC8433439, “Bivalent ligands promote endosomal trafficking of the dopamine D3 receptor-neurotensin receptor 1 heterodimer” (Communications Biology, 2021):
pKi: −log10 of the molar value. “Also recorded” adds a separate entry of the source.

Key:
[1] = target: T1, D3R (Homo sapiens, UniProt P35462); test: IPOne accumulation, D3R-mediated G protein activation, HEK293T cells with D3R and Gqprom; format: cell-based; design: host or cells: HEK293T, transient; conditions: compared to the reference agonist quinpirole
Protocol: Supplementary Figure 7 . Activation of D3R in transiently transfected HEK293T cells. D3R-mediated activation of G proteins was measured by stimulation of HEK293T cells transiently transfected with D3R and a promiscuous Gq protein (Gqprom). Subsequent f ormation of IP3 as second messenger of the Gq signaling pathway was determined employing the IPOne assay (CisBio). […]
TransIT293 in a DNA to reagent ratio of 1 : 3. After 24h, cells were detached using Versene […]
Germany) and additionally cultivated f or 24 h at 37°C, 5% CO 2. After replacement of the medium with 10 µL stimulation buffer (CisBio, Codolet, France), 5 µL of the test compounds dissolved in stimulation buffer were added. After 90 min at 37°C, 5 µL of IP1 reagent mix and 5 µ L of AB r eag ent mix in lysis buff er (CisBio) were added, f ollowed by a 60 min incubation at room temperature under light exclusion. The FRET ratio was determined using a CLARIOstar microplate reader with a f ilter […]
A sigmoid curve was fitted using the algorithms for three-parameter non-linear regression provided by GraphPad Pr ism 6.0 and the data were normalized to […]

[2] = target: T1, D3R; test: Radioligand competition/saturation binding with [3H]spiperone, membranes of HEK293T cells monoexpressing D3R; conditions: read-out: % Specific binding [³H]Spiperone, D3R; for remaining activity at 0.001 µM: log concentration -9.00; for remaining activity at 0.0001 µM: log concentration -10.00; for remaining activity at 1 pM: log concentration -12.00
Protocol: (§1) Affinities of the bivalent ligands were determined by radio-ligand displacement in analogy to previously described protocols[76]. […] Competition binding experiments were carried out using a protein concentration of 4–18 µg protein per well for the coexpression systems and 1–12 µg per well for the monoexpression system in a total volume of 200 µL. […] All binding experiments were carried out at 37 °C in binding buffer consisting of 50 mM Tris pH 7.4, 5 nM MgCl2, 1 mM EDTA, 100 µg ∙ mL^−1 bacitracin and 100 µg ∙ mL^−1 soybean trypsin inhibitor. Data were normalised to non-specific and total binding and analysed employing one- or two-site competition binding algorithms implemented in GraphPad Prism for windows, version 6.0 (GraphPad Software, San Diego California, USA, www.graphpad.com).

[3] = target: T2, D3R-Rluc (Homo sapiens, UniProt P35462); test: Bystander BRET internalisation (rGFP-CAAX / rGFP-FYVE), monoexpressed D3R-Rluc; format: cell-based; conditions: 1 µM quinpirole or 10 nM bivalent ligand
T2 construct: 24-aa linker […]; expressed in transfected cells; host or cells: HEK293SL or Δβ-arrestin-HEK, transient
Protocol: HEK293SL cells[71] or Δβ-arrestin-HEK[49] were detached with Trypsin/EDTA (Wisent Inc., St-Bruno, QC, Canada) and 350,000 cells were transiently transfected in suspension using polyethyleneimine. 5 ng of NTSR1-Rluc or 400 ng of D3R-Rluc8 were either mono-or cotransfected with 600 ng of untagged D3R or 5 ng NTSR1, respectively, along with 300 ng rGFP-CAAX or 300 ng rGFP-FYVE and ssDNA to a total of 1 µg DNA. Cells were seeded in white poly-L-ornithine (Sigma Aldrich) coated 96-well plates (Greiner Bio one) at a density of 35,000 cells per well. 48 hours after transfection, cells were washed once with PBS and serum starved for 30–45 min in Tyrode’s Buffer at 37 °C, 5% CO2. Coelenterazine-h was added in a final concentration of 3 µM and cells were further incubated at 37 °C, 5% CO2. After 3 min, ligands were added and cells were stimulated for 30 min, 37 °C, 5% CO2 before determining the BRETratio using a Mithras LB940 multimode microplate reader with 480-20 nm (donor) and 530-20 nm (acceptor) filters. […] Ligand-induced effects were monitored by calculation of ΔBRET, which was determined as the difference in BRETratio between the ligand-treated conditions and vehicle-treated controls. Data were analysed by three-parameter sigmoid or bell-shaped nonlinear regression using the algorithms provided by GraphPad Prism 6.0.

[4] = target: T1, D3R; test: Surface ELISA, monoexpressed Flag-D3R; format: cell-based; design: host or cells: HEK293T, transient; conditions: 1 µM quinpirole, 1 µM NT(8-13) or 10 nM 1d, 30 min
Protocol: β-arrestin 2 recruitment (bystander BRET)6
HEK293SL cells were diluted to a density of 350 ,000 cells ∙ mL-1 and transiently transfected using
to a total DNA amount of 1 µg . 35,000 cells were plated in a 96-well plate coated with poly L- ornithine
and cultivated f or 48 h at 37°C, 5% CO2. On the day of the experiment, the cell medium was aspirated
and each well was washed once with PBS and serum starved f or 30-45 min. A Deep Blue C dilution
ligand dilution in Tyrode’s buffer was added. After additional stimulation for 5 min at 37°C, 5% CO2,
BRET2 was determined using a Mithras LB940 multimode microplate reader with 400- 70 nm (donor)
Obtained BRETratios were normalized to vehicle
non- linear regression employing the models implemented in GraphPad Prism 6.

[5] = target: T1, D3R; test: biochemical
Protocol: as §1

T1 sequence (P35462 whole entry): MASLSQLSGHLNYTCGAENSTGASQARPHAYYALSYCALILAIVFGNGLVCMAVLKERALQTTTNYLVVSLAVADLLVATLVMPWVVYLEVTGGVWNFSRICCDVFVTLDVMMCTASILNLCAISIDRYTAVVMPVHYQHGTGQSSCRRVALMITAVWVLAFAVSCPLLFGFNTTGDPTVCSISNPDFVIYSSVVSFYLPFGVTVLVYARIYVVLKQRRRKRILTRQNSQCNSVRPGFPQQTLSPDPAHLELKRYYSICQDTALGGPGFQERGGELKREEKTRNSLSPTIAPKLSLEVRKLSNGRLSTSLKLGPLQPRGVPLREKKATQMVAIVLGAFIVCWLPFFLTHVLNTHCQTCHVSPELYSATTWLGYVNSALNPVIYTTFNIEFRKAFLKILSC
T2 sequence (P35462 whole entry): as above

SMILES | D3R-mediated activation of G proteins [1] | remaining activity at 0.001 µM [2] [%] | remaining activity at 0.0001 µM [2] [%] | remaining activity at 1 pM [2] [%] | internalisation of monoexpressed D3R-Rluc [3] | surface expression of monoexpressed D3R [4] | remaining activity at 0.302 µM ([2]; log concentration -6.52) [%] | remaining activity at 0.0302 µM ([2]; log concentration -7.52) [%] | remaining activity at 0.00302 µM ([2]; log concentration -8.52) [%] | remaining activity at 0.000302 µM ([2]; log concentration -9.52) [%] | remaining activity at 30.2 pM ([2]; log concentration -10.52) [%] | remaining activity at 0.01 µM ([2]; log concentration -8.00) [%] | remaining activity at 10 pM ([2]; log concentration -11.00) [%] | pKi [5]
CCCN(CCCCc1cn(-c2ccc(-c3ccc(C(=O)NCCOCCOCCOCCOCCOCCOCCC(=O)N[C@@H](CCCNC(=N)N)C(=O)N[C@@H](CCCNC(=N)N)C(=O)N4CCC[C@H]4C(=O)N[C@@H](Cc4ccc(O)cc4)C(=O)N[C@H](C(=O)N[C@@H](CC(C)C)C(=O)O)[C@@H](C)CC)cc3)cc2)nn1)C1Cc2ccccc2C1 [1a] | full D3R agonists | 48.9 | 74.5 | 88.8 | – | – | – | – | – | – | – | – | – | –
CCCN(CCCCc1cn(-c2ccc(-c3ccc(C(=O)NCCOCCOCCOCCOCCOCCOCCC(=O)NCCOCCOCCOCCOCCOCCOCCC(=O)NCCOCCOCCOCCOCCOCCOCCC(=O)NCCOCCOCCOCCOCCOCCOCCC(=O)N[C@@H](CCCNC(=N)N)C(=O)N[C@@H](CCCNC(=N)N)C(=O)N4CCC[C@H]4C(=O)N[C@@H](Cc4ccc(O)cc4)C(=O)N[C@H](C(=O)N[C@@H](CC(C)C)C(=O)O)[C@@H](C)CC)cc3)cc2)nn1)C1Cc2ccccc2C1 [1d] | full D3R agonists | – | 92.1 | 103 | could not detect internalisation | unchanged; also recorded: did not lead to apparent changes in surface expression | -0.137 | 12.6 | 46.4 | 92.1 | 96.8 | – | – | –
CC[C@H](C)[C@H](NC(=O)[C@H](Cc1ccc(O)cc1)NC(=O)[C@@H]1CCCN1C(=O)[C@H](CCCNC(=N)N)NC(=O)[C@H](CCCNC(=N)N)NC(=O)CCOCCOCCOCCOCCOCCOCCNC(=O)c1ccc(-c2ccc(-n3cc(CCCCN4CCN(c5ccccc5OC)CC4)nn3)cc2)cc1)C(=O)N[C@@H](CC(C)C)C(=O)O [2a] | weak partial agonist or antagonist-like behavior | 75 | 90 | 102 | – | – | – | – | – | – | – | 44.3 | 92 | 8.36
CC[C@H](C)[C@H](NC(=O)[C@H](Cc1ccc(O)cc1)NC(=O)[C@@H]1CCCN1C(=O)[C@H](CCCNC(=N)N)NC(=O)[C@H](CCCNC(=N)N)NC(=O)CCOCCOCCOCCOCCOCCOCCNC(=O)CCOCCOCCOCCOCCOCCOCCNC(=O)CCOCCOCCOCCOCCOCCOCCNC(=O)CCOCCOCCOCCOCCOCCOCCNC(=O)c1ccc(-c2ccc(-n3cc(CCCCN4CCN(c5ccccc5OC)CC4)nn3)cc2)cc1)C(=O)N[C@@H](CC(C)C)C(=O)O [2d] | weak partial agonist or antagonist-like behavior | – | – | 94.4 | could not detect internalisation | – | – | – | – | – | – | – | – | –
